Values after ≈ are worked out from the molar mass of the structure shown. Where two headings read alike, the source gives them in different places.
Legend:
[1] = Minimum inhibitory concentration (MIC) of antimicrobials / essential oils; format: cell-based
Description: The minimum inhibitory concentration (MIC) is given for each compound.
In each case the respective minimum inhibitory concentration (MIC) and their specific preferred concentration is also given.

[2] = test system: yeast Saccharomyces cerevisiae X2180-1B; conditions: RTD tea pH 3.4, 1-175 ppm cinnamic acid, 1-250 ppm DMDC, 14 days at 25° C.
Description: Tubes were inoculated with 10^4cells of the yeast Saccharomyces cerevisiae X2180-1B. Immediately following inoculation, dimethyl dicarbonate, DMDC was added at concentrations ranging from 1-250 ppm.
Tubes were inoculated with 10^4 cells of the yeast Saccharomyces cerevisiae X2180-1B. Immediately following inoculation, dimethyl dicarbonate, DMDC was added at concentrations ranging from 1-250 ppm.

[3] = test system: yeast Saccharomyces cerevisiae X2180-1B; conditions: synthetic soft drink pH 3.4, 1-175 ppm cinnamic acid, 1-250 ppm DMDC, 14 days at 25° C.
Description: Synthetic soft drink contained glucose, 8%w/v, citric acid 3 g/l, potassium orthophosphate 1 g/l, magnesium chloride 0.1 g/g and yeast extract 0.1 g/l. […] Tubes were inoculated with 10^4 cells of the yeast Saccharomyces cerevisiae X2180-1B. Immediately following inoculation, dimethyl dicarbonate, DMDC was added at concentrations ranging from 1-250 ppm.

[4] = cited from earlier work
[5] = test system: mould; conditions: cited from earlier work
[6] = Table I, preferred essential oils, test organism not given
[7] = Table I, preferred essential oils, test organism not given, read-out: MIC (ppm)
[8] = 100 ppm essential oil component
[9] = Table II, particularly preferred essential oils, test organism not given
[10] = 25 ppm citral dimethyl acetal together with 35 ppm cumic alcohol

CCCCCC1CCC(=O)O1 (stereo not drawn) [γ-Nonanoic lactone]
MIC (ppm) [1, 6]: 63 ppm

CC1CCC(C(C)C)C(O)C1 (stereo not drawn) [Neomenthol]
MIC (ppm) [1, 6]: 156 ppm

Tolualdehyde
MIC (ppm) [1, 6]: 240 ppm

CCCCCCCCO [1-Octanol]
MIC [1, 7]: 247 µg/mL (≈ 1900 µM)

CC1(C)C2CC=C(CO)C1C2 (stereo not drawn) [Myrtenol]
tubes supporting yeast growth, comparison with control FIG. 1 [2, 8]: very substantially fewer tubes supporting yeast growth
MIC (ppm) [1, 6]: 137 ppm
MIC (ppm) [1, 9]: 137 ppm
tubes supporting yeast growth, comparison with control FIG. 11 [3, 8]: very substantially fewer tubes supporting yeast growth

COc1cc(C=O)ccc1O [Vanillin]
MIC [1, 7]: 1220 µg/mL (≈ 7990 µM)

CCCCCCCCCCCO [1-Undecanol]
MIC [1, 7]: 14 µg/mL (≈ 81.2 µM)

CCCCCCCC1CCC(=O)O1 (stereo not drawn) [γ-Undecalactone]
MIC (ppm) [1, 6]: 28 ppm

CC/C=C\CC1=C(C)CCC1=O [Jasmone]
MIC [1, 7]: 246 µg/mL (≈ 1500 µM)

O=CC=Cc1ccccc1 [Cinnamaldehyde]
MIC [1, 7]: 66 µg/mL (≈ 499 µM)

CCCCCCCCCCO [Decanol]
MIC [1, 7]: 24 µg/mL (≈ 152 µM)

O=C(O)CCCC1CCCCC1 [Cyclohexanebutyric acid]
MIC [1, 7]: 68 µg/mL (≈ 399 µM)

CCCCCCCCCC=O [Decanal]
MIC [1, 7]: 47 µg/mL (≈ 301 µM)

CCC=C(C)C=O [2-Methyl-2-pentenal]
MIC [1, 7]: 1270 µg/mL (≈ 13000 µM)

CCCCCCCC(=O)O [Octanoic acid (caprylic), Octanoic acid]
MIC [1, 7]: 115 µg/mL (≈ 797 µM)

CC(C)c1ccc(CO)cc1 [Cumic alcohol]
tubes supporting yeast growth, comparison with control FIG. 1 [2, 10]: very substantially fewer tubes supporting yeast growth
tubes supporting yeast growth, comparison with control FIG. 1 [2, 8]: very substantially fewer tubes supporting yeast growth
MIC (ppm) [1, 6]: 450 ppm
MIC (ppm) [1, 9]: 450 ppm
tubes supporting yeast growth, comparison with control FIG. 11 [3, 10]: very substantially fewer tubes supporting yeast growth
tubes supporting yeast growth, comparison with control FIG. 11 [3, 8]: very substantially fewer tubes supporting yeast growth

CC(C)=C1CC[C@@H](C)CC1=O [Pulegone]
MIC [1, 7]: 152 µg/mL (≈ 998 µM)

COC(C=C(C)CCC=C(C)C)OC [Citral dimethyl acetal]
tubes supporting yeast growth, comparison with control FIG. 1 [2, 10]: very substantially fewer tubes supporting yeast growth
tubes supporting yeast growth, comparison with control FIG. 1 [2, 8]: very substantially fewer tubes supporting yeast growth
MIC [1, 7]: 198 µg/mL (≈ 998 µM)
MIC (ppm) [1, 9]: 198 ppm
tubes supporting yeast growth, comparison with control FIG. 11 [3, 10]: very substantially fewer tubes supporting yeast growth
tubes supporting yeast growth, comparison with control FIG. 11 [3, 8]: very substantially fewer tubes supporting yeast growth

COc1ccccc1C=CC=O [o-Methoxycinnamaldehyde]
MIC [1, 7]: 130 µg/mL (≈ 802 µM)

CCOC(=O)CCC1CCCCC1 [Ethyl cyclohexanepropionate]
MIC [1, 7]: 184 µg/mL (≈ 998 µM)

CCCCC/C=C/C=C/C=O [trans, trans-2,4-Decadienal]
tubes supporting yeast growth, comparison with control FIG. 1 ([2]; 15 ppm essential oil component): very substantially fewer tubes supporting yeast growth
MIC [1, 7]: 8 µg/mL (≈ 52.5 µM)
MIC (ppm) [1, 9]: 8 ppm
tubes supporting yeast growth, comparison with control FIG. 11 ([3]; 15 ppm essential oil component): very substantially fewer tubes supporting yeast growth

CCCOC(=O)c1ccccc1 [Propyl benzoate]
MIC [1, 7]: 66 µg/mL (≈ 402 µM)

COC(=O)c1ccccc1O [Methyl salicylate]
MIC [1, 7]: 152 µg/mL (≈ 999 µM)

C/C(C=O)=C\c1ccccc1 [α-Methyl-trans-cinnamaldehyde]
MIC (ppm) [1, 6]: 58.4 ppm

CCOC(=O)C(C)=O [Ethyl pyruvate]
MIC [1, 7]: 1390 µg/mL (≈ 12000 µM)
MIC (ppm) [1, 9]: 1392 ppm

COC(=O)OC(=O)OC [DMDC, Dimethyl dicarbonate]
break down in aqueous environments [4]: breaks down rapidly
efficacy against mould contamination [5]: inefficient

CC(C)CC=C(C=O)c1ccccc1 [5-Methyl-2-phenyl-2-hexenal]
MIC [1]: 162 µg/mL (≈ 860 µM)

CC(=O)OCc1ccc2c(c1)OCO2 [Piperonyl acetate]
tubes supporting yeast growth, comparison with control FIG. 1 [2, 8]: very substantially fewer tubes supporting yeast growth
MIC [1]: 242 µg/mL
MIC (ppm) [1, 9]: 242 ppm
tubes supporting yeast growth, comparison with control FIG. 11 [3, 8]: very substantially fewer tubes supporting yeast growth

O=C(OCc1ccccc1)c1ccc(O)cc1 [Benzyl-4-hydroxybenzoate]
MIC [1, 7]: 68 µg/mL (≈ 298 µM)

CCCCCCCCCCC=O [Undecanal]
MIC [1, 7]: 34 µg/mL (≈ 200 µM)

COC(=O)c1ccccc1N [Methyl anthranilate]
MIC [1, 7]: 310 µg/mL (≈ 2050 µM)

C=C(C)C1CC=C(C)C(=O)C1 (stereo not drawn) [Carvone]
MIC [1, 7]: 300 µg/mL (≈ 2000 µM)

CC(C)(C)C1CCC(=O)CC1 [4-tert-Butylcyclohexanone]
MIC [1, 7]: 462 µg/mL (≈ 3000 µM)

CC(=O)OCCC1CCCCC1 [2-Cyclohexylethyl acetate]
MIC [1, 7]: 102 µg/mL

CC(C)CCCC(C)CCO (stereo not drawn) [3,7-Dimethyl-1-octanol]
tubes supporting yeast growth, comparison with control FIG. 1 ([2]; 50 ppm essential oil component): very substantially fewer tubes supporting yeast growth
MIC [1, 7]: 15.8 µg/mL (≈ 99.8 µM)
MIC (ppm) [1, 9]: 15.8 ppm
tubes supporting yeast growth, comparison with control FIG. 11 ([3]; 50 ppm essential oil component): very substantially fewer tubes supporting yeast growth

CC1=CCC(O)(C(C)C)CC1 (stereo not drawn) [Terpinen-4-ol]
MIC [1, 7]: 616 µg/mL (≈ 3990 µM)

CC(C)=CCCC(C)=CC=O [Citral]
tubes supporting yeast growth, comparison with control FIG. 1 [2, 8]: very substantially fewer tubes supporting yeast growth
MIC [1, 7]: 228 µg/mL (≈ 1500 µM)
MIC (ppm) [1, 9]: 228 ppm
tubes supporting yeast growth, comparison with control FIG. 11 [3, 8]: very substantially fewer tubes supporting yeast growth

CC(=O)C(=O)c1ccccc1 [1-Phenyl-1,2-propanedione]
MIC [1, 7]: 222 µg/mL (≈ 1500 µM)

CCCCCCCCC(=O)O [Nonanoic acid]
MIC [1, 7]: 63 µg/mL (≈ 398 µM)

CC=CC=CC=O [Sorbic aldehyde (2,4-hexadienal), 2,4-hexadienal]
MIC [1, 7]: 86 µg/mL (≈ 895 µM)

CC(=O)OCCc1scnc1C [4-Methyl-5-thiazoleethanol acetate]
MIC [1, 7]: 1110 µg/mL

CCCCCCCCC(=O)OC [Methyl nonanoate]
MIC [1, 7]: 90 µg/mL (≈ 522 µM)

CCCC1CCCC(=O)O1 (stereo not drawn) [δ-Octalactone]
MIC (ppm) [1, 6]: 568 ppm

CC(C)=CCCC(C)CCO (stereo not drawn) [Citronellol]
MIC [1, 7]: 125 µg/mL (≈ 800 µM)

C=C(C)C1CCC(C)C(O)C1 (stereo not drawn) [Dihydrocarveol]
MIC (ppm) [1, 6]: 540 ppm

Reference: patent publication US6562387B2, “Ambient stable beverage and process of making” (priority 2000, dated 2003)
